Measurements as given in patent publication US4992470A, “Method of enhancing immune response of mammals” (Iowa State University Research Foundation, Inc., priority 1990, dated 1991).

Tests used:
lymphocytes = experiment: In vitro effects of leucine or leucine metabolites on PHA-stimulated lymphocyte blastogenesis (3H-thymidine incorporation); type: cell-based, bovine; conditions: for activation at 1000 µM: Bos taurus, Lymphocyte, 72 h, final concentration 1 mM, PHA stimulated, read-out: % Change from No Additive, in vitro lymphocyte blastogenesis (Mean Percent Change, SEM)
Description: Lymphocyte Blastogenesis Determinations. Blood collections, lymphocyte isolation and blastogenesis assays were performed on isolated bovine cells by using a 3-d culture procedure as described previously in Kuhlman, et al. (1988), J. Nutr., 118:1564-1569.
Isolated lymphocytes were exposed to 1 and 10 mM Leu and KIC and the metabolites isovalarate, β-hydroxy-β-methyl butyrate (HMB), β-hydroxy-β-methyl glutarate, butyrate, acetate, acetone, acetoacetate, and β-hydroxy butyrate (BOHB). The cells were then stimulated with the mitogen phytohemagglutinin, and incorporation of ^3 H-thymidine into the DNA of the dividing lymphocytes was measured.
Leucine and Leucine Metabolites. Most of the compounds listed in Table B were purchased from Sigma Chemical Company, St. Louis, MO. KIC was purchased from SOBAC (Paris, France), HMB was synthesized as described in Example 1, and the calcium salt of HMB was purified by crystallization in 95% ethanol. The calcium salt was converted to a sodium salt form and used in subsequent assays. The pH of all compounds was adjusted to approximately 7.3. Compounds were passed through a 0.2-um filter assembly to assure sterility.

[1] = Hygroscopicity of HMB salts; type: physicochemical; conditions: compared with Ca-HMB
T lymphocytes [2] = conditions: U.S. Pat. No. 4,835,185; cited from earlier work
[3] = cited from earlier work
[4] = U.S. Pat. No. 4,835,185; cited from earlier work
[5] = Stability of HMB (and KIC) in the rumen: incubation in diluted rumen fluid; type: in vitro ADME, steer
Description: Rumen fluid was collected from a fistulated steer. After filtration and dilution (1:4) with an artificial saliva, 25ml of the solution was added to 50ml plastic tubes. Each tube was fitted with a one-way valve to allow gases to escape while not allowing air into the tube. Each tube was then gassed with C02 and incubated at 39° C. After 30 min a solution of KIC or HMB was added to the tube in concentrations to simulate what would be present in the rumen of an animal consuming .05% of the diet as KIC or HMB. It was estimated that a 50uM concentration would be attained in this case. At timed intervals 50ul samples of this rumen fluid were taken and analyzed for KIC and HMB.

[6] = rat feeding studies; cited from earlier work
isolated lymphocytes = experiment: HMB effects on lymphocyte function in lambs (ex vivo mitogen-stimulated blastogenesis after feeding)
Description: Animals and Experimental Design. Three sets of twin lambs were housed individually in fiberglass pens. Animals were randomly assigned to control or HMB diets, using a standard basal diet with and without 0.05% HMB.
Blood Sampling and Lymphocyte Preparation. In the first experiment, animals were bled for lymphocyte blastogenesis assays and T-cell subset analysis 38, 45, and 52 days after dietary treatments began. Blood (50 ml) was collected, aseptically, via jugular venepuncture into 10 ml acid-citrate-dextrose anticoagulant (44 g trisodium citrate, 16 g citric acid and 50 g dextrose per 1 of triple-distilled water). Blood was centrifuged, the buffy coat removed, and 1 volume of buffy coat was diluted with 0.5 volume of plasma which was added to 2 volumes of Sepracell-MN (Sepratech Corporation, Oklahoma City, Okla.). After further centrifugation at 1500 x g for 25 min, the mononuclear layer was removed and washed twice with Hanks' balanced salt solution (HBSS; Gibco, Grand Island, N.Y.) by centrifuging at 150 x g for 15 min. The remaining white blood cells were resuspended in HBSS, and the total number of white blood cells was determined by using an automated cell counter (Coulter Electronics, Hialeah, Fla.). The concentration of the cells was adjusted to 1×20^6 " cells/ml with HBSS.
Lymphocyte Blastogenesis Determinations. Blastogenesis assays were performed on isolated lymphocytes by using a 3-d culture procedure as described previously. Briefly, isolated lymphocytes were cultured in microtiter plates with 2×10^5 " cells in 0.15 ml of culture medium/well. Culture medium consisted of RPMI media-1640 (Gibco, Grand Island, N.Y.) containing 15% heat-inactivated fetal bovine serum and 1% antibiotic-antimycotic solution (Gibco, Grand Island, N.Y.). Unstimulated and mitogen-stimulated cultures were assayed in triplicate. Mitogens used were phytohemagglutinin-P (PHA), concanavalin A (ConA) and pokeweed mitogen (PWM). PHA was purchased from Difco Laboratories, Detroit, MI; ConA from Miles Laboratories, Elkhart, IN; and PWM from Gibco, New York, N.Y. Microtiter plates were incubated at 37° C. in a humidified 5% CO2 atmosphere. After 48 h, 0.25 uCi of ^3 H-thymidine (New England Nuclear, Boston, Mass.) was added to each well. Eighteen hours later, the cultures were harvested onto glass-fiber filters with an automated sample harvester (Flow Laboratories, Rockville, Mo.), filters were placed in 10 ml CytoScint scintillation solution (ICN Biomedicals, Irvine, CA), and radioactivity was counted in a liquid scintillation counter. This procedure is similar to that described by Kuhlman, et al., J. Nutr., 118:1564-1569.

[7] = tested on: Bordetella broncheseptica; experiment: Pigs: nasal degeneration scores; type: in vivo; conditions: HMB-fed pigs
Excerpt: (§1) Twelve specific pathogen free (SPF) pigs 4-5 weeks of age were distributed into two groups, each being blocked by gender and litter. All pigs were fed approximately 4% of their body weight of a commercially purchased starter ration. Pigs were penned individually and allowed free access to water.
(§2) Diets were supplemented with one of two dietary treatments: Control (limestone)(n=6) and HMB (n=6). Dietary treatments were fed at 0.05% of the body weight. HMB was synthesized by the method of Example 1. One week later, pigs were injected with 5 ml/30 kg body weight of a 20% suspension of sheep red blood cells (SRBC) subcutaneously.
(§3) The iliac lymph nodes, liver, spleen, and gastrocnemius muscle were removed from the carcass and weighed. The nasal cavity was examined for evidence of Bordetella broncheseptica infection that will result in nasal turbinate degeneration. Nasal degeneration was scored as to severity with 0 indicating no lesions and the highest score, 3, corresponding to […] degeneration.

T lymphocytes [8] = experiment: Activation of immune function of T lymphocytes, HMB compared with KIC; set-up: species or system mammals
[9] = Stability of HMB (and KIC) in the rumen: incubation in diluted rumen fluid; type: in vitro ADME, steer; conditions: as far as is known; general statement, oral administration to ruminants
[10] = tested on: sheep red blood cells (SRBC); experiment: Pigs: antibody titers against sheep red blood cells (agglutination assay); type: in vivo; conditions: HMB-fed pigs; control 11.6; * p < .05
Excerpt: as §1, §2
(§4) Fourteen days post dietary treatments, all pigs were challenged via intratracheal inoculation with 5 ml of a ground lung suspension. The suspension was derived from pig pneumonic tissue obtained from a pig experimentally inoculated with Mycoplasma hyopneumoniae. […] Titers to Mycoplasma hyopneumoniae were determined using a serum complement fixation assay. At necropsy, the extent of macroscopic pneumonia lesions was recorded and samples from all pigs were submitted for histopathology to assay microscopic lesions. Lung and bronchi samples were cultured and evaluated for the presence of Mycoplasma species (i.e., M. hyorhinis, M. hyosynoviae, and M. hyopneumoniae) and other easily isolated bacteria (i.e., bordetella, pasteurella, and hemophilus).

[11] = Pigs: organ weights at necropsy; type: in vivo; conditions: HMB-fed pigs
Excerpt: as §1, §2, §3

[12] = tested on: Mycoplasma species and other easily isolated bacteria; experiment: Pigs: bacteria cultured from bronchi; type: in vivo; conditions: HMB-fed pigs
Excerpt: as §1, §2, §4

Mycoplasma hyopneumoniae = experiment: Pigs infected with Mycoplasma: lung lesions, lung fluorescent antibodies, antibody titers; type: in vivo
Excerpt: as §1, §2
Fourteen days post dietary treatments, all pigs were challenged via intratracheal inoculation with 5 ml of a ground lung suspension. The suspension was derived from pig pneumonic tissue obtained from a pig experimentally inoculated with Mycoplasma hyopneumoniae. Blood samples were collected once a week for the evaluation of antibodies produced in response to the SRBC and Mycoplasma hyopneumoniae antigenic stimuli. An agglutination assay was used to determine antibody titers produced against SRBC. Titers to Mycoplasma hyopneumoniae were determined using a serum complement fixation assay. At necropsy, the extent of macroscopic pneumonia lesions was recorded and samples from all pigs were submitted for histopathology to assay microscopic lesions. Lung and bronchi samples were cultured and evaluated for the presence of Mycoplasma species (i.e., M. hyorhinis, M. hyosynoviae, and M. hyopneumoniae) and other easily isolated bacteria (i.e., bordetella, pasteurella, and hemophilus).

[13] = 0 min after addition, rumen fluid diluted 1:4, 39° C., initial concentration of KIC was estimated
[14] = 15 min after addition, rumen fluid, 39° C.
[15] = 30 min after addition, rumen fluid, 39° C.
[16] = 60 min after addition, rumen fluid, 39° C.
[17] = 240 min after addition, rumen fluid, 39° C.
[18] = 480 min after addition, rumen fluid, 39° C.
[19] = Before Treatment (baseline of HMB group)

## CC(O)(CC(=O)O)CC(=O)O [β-hydroxy-β-methyl glutarate]
lymphocytes
  Effect on blastogenesis (in words): increased blastogenesis slightly
  activation at 1000 µM: 28%

## CC(C)(O)CC(=O)O [Na-HMB]
[1]
  Hygroscopicity (in words): more hydroscopic than Ca-HMB

## CC(O)CC(=O)O (stereo not drawn) [β-hydroxybutyrate, β-hydroxy butyrate]
lymphocytes
  Effect on blastogenesis (in words): increased blastogenesis slightly
  activation at 1000 µM: 25%

## CC(C)CC(=O)C(=O)O [KIC, α-keto-isocaproic acid]
T lymphocytes [2]
  Blastogenesis function (in words): activating the blastogenesis function of the immune systems
[3]; U.S. Pat. Nos. 4,760,090 and 4,760,531
  Cholesterol in meat, milk and eggs (in words): cholesterol reduction in meat, milk and eggs
[3]; lactating domestic animals, U.S. Pat. No. 4,758,593
  Milk production (in words): the quantity of milk produced may be increased
[3]; laying chickens, U.S. Pat. No. 4,760,531
  Egg production (in words): can also sometimes be increased
[3]; mature sheep, U.S. Pat. No. 4,760,090
  Wool production (in words): the amount of wool produced may also be increased
[3]; milligram amounts of KIC, U.S. Pat. Nos. 4,760,090 and 4,883,817
  Weight gain and/or feed efficiencies (in words): some increases in the rates of weight gain and/or feed efficiencies
lymphocytes
  Direct effect on the immune system (in words): have no effect on he immune system directly
  Effect on blastogenesis (in words): had no effects on blastogenesis
  activation at 1000 µM: -3 ± 7%
[4]
  Plasma cortisol levels (in words): will usually decrease plasma cortisol levels
[5]
  Stability in rumen environment (in words): rapidly destroyed by the rumen bacteria
[5]; [13]
  KIC / HMB in rumen fluid: 30 µM
[5]; [14]
  KIC / HMB in rumen fluid: 15 µM
[5]; [15]
  KIC / HMB in rumen fluid: 4 µM
[5]; [16]
  KIC / HMB in rumen fluid: 2 µM
[5]; [17]
  KIC / HMB in rumen fluid: 2 µM
[5]; [18]
  KIC / HMB in rumen fluid: 1 µM
[6]
  Amount of KIC required to replace leucine: two to three times as much KIC as the nutritionally required amount of leucine

## CC(C)(O)CC(=O)O [HMB, β-hydroxy-β-methyl butyric acid]
Isolated lymphocytes; After Treatment, diet with 0.05% HMB, control 15,000
  Decays Per Min of 3H Thymidine Incorporated into Isolated Lymphocytes, PHA Stimulation: 18,000 Decays Per Min
Isolated lymphocytes; After Treatment, diet with 0.05% HMB, control 18,000
  Decays Per Min of 3H Thymidine Incorporated into Isolated Lymphocytes, PWM Stimulation: 25,000 Decays Per Min
Isolated lymphocytes; After Treatment, diet with 0.05% HMB, control 19,000
  Decays Per Min of 3H Thymidine Incorporated into Isolated Lymphocytes, ConA Stimulation: 21,000 Decays Per Min
Isolated lymphocytes; [19]
  Decays Per Min of 3H Thymidine Incorporated into Isolated Lymphocytes, ConA Stimulation: 41,000 Decays Per Min
  Decays Per Min of 3H Thymidine Incorporated into Isolated Lymphocytes, PHA Stimulation: 23,000 Decays Per Min
  Decays Per Min of 3H Thymidine Incorporated into Isolated Lymphocytes, PWM Stimulation: 21,000 Decays Per Min
Isolated lymphocytes; after minus before treatment, change in control -14,000
  Change in 3H Thymidine incorporation, PWM Stimulation: +4,000 Decays Per Min
Isolated lymphocytes; after minus before treatment, change in control -22,000
  Change in 3H Thymidine incorporation, PHA Stimulation: -5,000 Decays Per Min
Isolated lymphocytes; after minus before treatment, change in control -29,000
  Change in 3H Thymidine incorporation, ConA Stimulation: -20,000 Decays Per Min
Isolated lymphocytes; lambs, 0.05% HMB diet
  Effect on decline in lymphocyte function (in words): tended to effect the decline in lymphocyte function
[7]
  Nasal degeneration due to bordetella infection (in words): significant decrease in nasal degeneration due to bordetella infection
  Severity of nasal turbinate lesions (in words): less severe lesions of the nasal turbinates
[7]; highest score 3 = moderate degeneration, control 1.6, * p < .05
  Nasal degeneration scores (0 = no lesion): 0.8
T lymphocytes [8]
  Activation of immune function of T lymphocytes relative to KIC (in words): markedly more effective for activating the immune function of T lymphocytes
[9]
  Rumen destruction (in words): not subject to significant rumen destruction
[10]
  Red blood cell titers (dilution) day 10-15: 15.5 dilution
lymphocytes
  activation at 1000 µM: 78%
[5]
  Stability in rumen environment (in words): quite stable in a rumen environment
[5]; [13]
  KIC / HMB in rumen fluid: 60 µM
[5]; [14]
  KIC / HMB in rumen fluid: 76 µM
[5]; [15]
  KIC / HMB in rumen fluid: 81 µM
[5]; [16]
  KIC / HMB in rumen fluid: 71 µM
[5]; [17]
  KIC / HMB in rumen fluid: 74 µM
[5]; [18]
  KIC / HMB in rumen fluid: 74 µM
[11]
  Size of spleen and iliac lymph node (in words): smaller in HMB-fed animals
[11]; control 3.8, * p < .05
  Iliac lymph node weight: 3.3 g
[11]; control 101
  Spleen weight: 94 g
[12]
  Bacteria cultured in the bronchi (in words): fewer bacteria cultured in the bronchi
[12]; control 1.1
  Bronchi, presence of bacteria: 0.8
Mycoplasma hyopneumoniae; HMB-fed pigs
  M. hyopneumoniae colonies by fluorescent antibody technique (in words): decreased
Mycoplasma hyopneumoniae; HMB-fed pigs infected with M. hyopneumoniae
  Prevention of Mycoplasmal lung damage (in words): can prevent some of the lung damage associated with a Mycoplasmal lung agent
Mycoplasma hyopneumoniae; HMB-fed pigs vs control
  Lung or bronchi evaluations (in words): no significant differences were seen in the lung or bronchi evaluations
  M. hyopneumoniae antibody titers (in words): no significant differences
Mycoplasma hyopneumoniae; HMB-fed pigs, control 12.6
  Lung fluorescent antibodies to M. hyopneumoniae: 10.3
Mycoplasma hyopneumoniae; HMB-fed pigs, control 18.7
  % lung showing lesions: 13.7%
Mycoplasma hyopneumoniae; HMB-fed pigs, serum complement fixation, control 7.1
  M. hyopneumoniae peak titers: 6.7
Mycoplasma hyopneumoniae; vs KIC-fed or control animals, not statistically significant
  Extent of mycoplasmal lung infection (in words): lesser extent of mycoplasmal lung infection than did KIC-fed or control animals

## CC(C)C[C@H](N)C(=O)O [Leucine, L-leucine]
lymphocytes
  Direct effect on the immune system (in words): have no effect on he immune system directly
  Effect on blastogenesis (in words): tended to suppress blastogenesis
  activation at 1000 µM: -12 ± 6%
